{"source": "patent US5994359A", "about": "“Imino oxyphenyl acetic acid derivatives, methods and intermediates for their preparation and use thereof” (BASF Aktiengesellschaft, priority 1995, dated 1999)", "key": {"[1]": {"test_system": "mitochondria of the yeast Saccharomyces cerevisiae", "experiment": "Inhibition of mitochondrial respiration (photometric cytochrome c reduction rate in isolated mitochondria)", "assay_type": "biochemical", "settings": "Saccharom. cerevisiae mitochondria; relative to reference substance enol ether stilbene", "description": "To determine the effect of the compounds according to the invention on mitochondrial respiration, it is first necessary to isolate the mitochondria from the test organisms. In the case of the yeast Saccharomyces cerevisiae, a 30 to 40% cell suspension of the fungus is disrupted, to this end, in an aqueous solution of 0.6 M Mannitol+0.01 M tris[hydroxymethyl]aminomethane+0.002 M disodium ethylenediaminetetraacetate (pH 6.8) using a glass bead mill, and the extract is fractionated by means of differential centrifugation at 1000×g and 12000×g. The mitochondria are in the precipitate of the 12000×g centrifugation.\nThe effect of the compounds on the respiration chain is determined by adding a solution of the test compound in dimethyl sulfoxide to a suspension of mitochondria in an aqueous solution of 0.01 M tris[hydroxymethyl]aminomethane+0.65 M sorbitol+0.01 M KH2 PO4 +0.01 M KCl+0.0004 M disodium ethylenediamine-tetraacetate+0.3% bovine serum albumin+0.0007 M KCN+6×10^-6 ubiquinone-50+0.01 M sodium succinate+0.15% cytochrome c (pH 7.5), and the reduction rate of the cytochrome c is determined photometrically on the basis of the increased absorption at 546 nm. A batch with a corresponding amount of pure DMSO is used as control. The inhibitory value for the active ingredient at the concentration shown in each case is then calculated as follows. [formula] where ΔE is the difference in absorption, At the difference in time, [formula]\nIn the table which follows, the action of a series of compounds according to the invention as respiration inhibitors on the mitochondria of the yeast Saccharomyces cerevisiae, the phyto-pathogenic fungus Drechslera sorokiniana and the common housefly Musca domestics.\nIn each case, the inhibition of mytochondrial respiration is given as I50 value (this being the concentration of test substance where a 50% inhibition is observed) and as F value, this being a relative value defined as follows: [formula]\nThe reference substance is the so-called enol ether stilbene, of the following formula: [drawing 80]"}, "[2]": {"test_system": "Tetranychus telarius", "experiment": "Tetranychus telarius (greenhouse red spider mite), contact action", "assay_type": "in vivo", "settings": "120 h, infested dwarf beans in pots, assessed after 5 days in the greenhouse, read-out: limit concentration (lowest concentration still causing 80-100% inhibition or mortality)", "description": "(§1) The active ingredients were formulated\n(§2) a) as a 0.1% strength solution in acetone or\n(§3) b) as a 10% emulsion in a mixture of 70% by weight of cyclohexanol, 20% by weight of Nekanil® LN (Lutensol® AP6, wetting agent having emulsifying and dispersant action based on ethoxylated alkylphenols) and 10% by weight of Emulphor® EL emulsifier based on ethoxylated fatty alcohols)\n(§4) and diluted to give the desired concentraton, using acetone in the case of a) and water in the case of b).\n(§5) After the experiments had been concluded, in each case the lowest concentration at which the compounds still caused an 80-100% inhibition or mortality in comparison with untreated controls was determined (limit or minimum concentration).\nAfter 5 days in the greenhouse, the result of the control measures was determined by means of a stereomicroscope."}, "[3]": {"test_system": "Aphis fabae", "experiment": "Aphis fabae (blackbean aphid), contact action", "assay_type": "in vivo", "settings": "infested dwarf beans (Vicia faba), mortality after 24 hours, read-out: limit concentration (lowest concentration still causing 80-100% inhibition or mortality)", "description": "as §1, §2, §3, §4, §5\nSeverely infested dwarf beans (Vicia faba) were treated with the aqueous preparation of active ingredient. After 24 hours, the mortality rate was determined."}, "[4]": {"test_system": "Heliothis virescens", "experiment": "Heliothis virescens (tobacco budworm), contact/stomach action", "assay_type": "in vivo", "settings": "tobacco plants, 3rd instar larvae, mortality and antifeeding effect after 48 hours, read-out: limit concentration (lowest concentration still causing 80-100% inhibition or mortality)", "description": "as §1, §2, §3, §4, §5\nTobacco plants approximately 10 cm high were treated with the aqueous preparation of active ingredient. After the plants had dried, they were populated with in each case 10 3rd instar larvae. Mortality and antifeeding effect were assessed after 48 hours."}}, "data": [{"smiles": "CON=C(C(=O)OC)c1ccccc1ON=C(C)c1cccc(C)c1", "note": "[I(1).1, methyl methoxyimino-[2-(1-meta-tolylethylideneaminooxy)phenyl]acetate]", "values": [{"measurement": "F value (relative value)", "setting": "[1]", "value": 0.96}]}, {"smiles": "CNC(=O)C(=NOC)c1ccccc1ON=C(C)c1cccc(C)c1", "note": "[I(1).2, 2-methoxyimino-N-methyl-2-[2-(1-meta-tolylethylideneamino-oxy)phenyl]acetamide]", "values": [{"measurement": "F value (relative value)", "setting": "[1]", "value": 11}]}, {"smiles": "CON=C(C)C(C)=NOc1ccccc1C(=NOC)C(=O)OC", "note": "[I(2).2, methyl methoxyimino-[2-(2-methoxyimino-1-methylpropylideneaminooxy)phenyl]acetate]", "values": [{"measurement": "F value (relative value)", "setting": "[1]", "value": 0.43}, {"measurement": "minimal effective concentration", "setting": "[2]", "value": "≤ 200", "unit": "µg/mL"}]}, {"smiles": "CNC(=O)C(=NOC)c1ccccc1ON=C(C)C(C)=NOC", "note": "[I(2).3, N-methyl-methoxyimino-[2-(2-methoxyimino-1-methylpropylideneaminooxy)phenyl]acetamide]", "values": [{"measurement": "F value (relative value)", "setting": "[1]", "value": 9.6}]}, {"smiles": "COC=C(C(=O)OC)c1ccccc1ON=C(C)C(C)=NOC(C)C", "note": "[I(2).6]", "values": [{"measurement": "minimal effective concentration", "setting": "[2]", "value": "≤ 200", "unit": "µg/mL"}]}, {"smiles": "COC=C(C(=O)OC)c1ccccc1ON=C(C)C(C)=NOC", "note": "[I(2).7, methyl 3-methoxy-[2-(2-methoxyimino-1-methyl-propylideneaminooxy)phenyl]acrylate]", "values": [{"measurement": "minimal effective concentration", "setting": "[2]", "value": "≤ 200", "unit": "µg/mL"}]}, {"smiles": "CNC(=O)C(=NOC)c1ccccc1ON=C(C)C(C)=NOC(C)C", "note": "[I(2).8]", "values": [{"measurement": "minimal effective concentration", "setting": "[2]", "value": "≤ 200", "unit": "µg/mL"}]}, {"smiles": "CCON=C(C)C(C)=NOc1ccccc1C(=NOC)C(=O)OC", "note": "[I(2).9]", "values": [{"measurement": "minimal effective concentration", "setting": "[3]", "value": 200, "unit": "µg/mL"}, {"measurement": "minimal effective concentration", "setting": "[2]", "value": "≤ 200", "unit": "µg/mL"}]}, {"smiles": "CON=C(C(=O)OC)c1ccccc1ON=C(C)C(C)=NOC(C)C", "note": "[I(2).13]", "values": [{"measurement": "minimal effective concentration", "setting": "[2]", "value": "≤ 200", "unit": "µg/mL"}]}, {"smiles": "CCC(=NOc1ccccc1C(=COC)C(=O)OC)C(C)=NOC", "note": "[I(2).14]", "values": [{"measurement": "minimal effective concentration", "setting": "[2]", "value": "≤ 200", "unit": "µg/mL"}]}, {"smiles": "CCON=C(C)C(C)=NOc1ccccc1C(=COC)C(=O)OC", "note": "[I(2).15]", "values": [{"measurement": "minimal effective concentration", "setting": "[2]", "value": "≤ 200", "unit": "µg/mL"}]}, {"smiles": "C#CCON=C(C)C(C)=NOc1ccccc1C(=NOC)C(=O)OC", "note": "[I(2).16]", "values": [{"measurement": "minimal effective concentration", "setting": "[2]", "value": "≤ 200", "unit": "µg/mL"}]}, {"smiles": "C#CCON=C(C)C(C)=NOc1ccccc1C(=COC)C(=O)OC", "note": "[I(2).17]", "values": [{"measurement": "minimal effective concentration", "setting": "[4]", "value": 40, "unit": "µg/mL"}, {"measurement": "minimal effective concentration", "setting": "[2]", "value": "≤ 200", "unit": "µg/mL"}]}, {"smiles": "CCC(=NOC)C(C)=NOc1ccccc1C(=NOC)C(=O)NC", "note": "[I(2).19]", "values": [{"measurement": "minimal effective concentration", "setting": "[2]", "value": "≤ 200", "unit": "µg/mL"}]}, {"smiles": "CCC(=NOC)C(C)=NOc1ccccc1C(=COC)C(=O)OC", "note": "[I(2).20]", "values": [{"measurement": "minimal effective concentration", "setting": "[2]", "value": "≤ 200", "unit": "µg/mL"}]}, {"smiles": "CCC(=NOC)C(C)=NOc1ccccc1C(=NOC)C(=O)OC", "note": "[I(2).21]", "values": [{"measurement": "minimal effective concentration", "setting": "[2]", "value": "≤ 200", "unit": "µg/mL"}]}]}
